Results on three molecules are retold here after patent US6458846B1, “Ion channel modulating agents” (Neurosearch A/S, priority 1998, dated 2002).

The term melting point denotes the temperature, or range, at which the solid turns liquid.

Molecules are shown by their SMILES. Structures can show the parent of a compound that is named as a salt.

For the molecule `ON=Cc1ccc(Cl)c(Cl)c1OCc1ccccc1` (as salt: HCl) [Compound 1e, O-Benzyl 2-formyl-5,6-dichlorophenol oxime], the melting point was 64 to 69 °C.

Consider `COc1c(C=NO)ccc(Cl)c1Cl` (as salt: HCl) [Compound 1f, O-Methyl 2-formyl-5,6-dichlorophenol oxime], for which the melting point lay in the range of 82 to 83 °C.

In the case of `CC(=O)c1ccccc1NC(C)=NO` [Compound 1i, N-(2-acetylphenyl)acetamide oxime], the melting point fell in the range of 99 to 100 °C.
